For this experiment, the system named is phosphorylated ERK1/2 (MAPK pathway) in HKGS-activated HEKa cells. Description: Reversal of EGFR inhibitor-mediated pERK inhibition in HKGS-activated HEKa cells, Western blot. Type of experiment: cell-based, human. The following applies: HKGS plus erlotinib 10 μM, two hours.

Experimental: Primary HEKa, isolated from adult skin of a single donor and cryopreserved at the end of primary culture (Gibco catalog number C0055C, Thermo Fisher Scientific, Waltham, MA), were cultured in T25 flasks at 37° C., 5% CO2 in growth medium (Epilife™ CF Kit, Gibco) supplemented with 60 μM calcium (Gibco) and HKGS (Gibco). After at least three passages, cells were harvested with trypsin when flask reached 70-80% confluence, and seeded in 10 cm culture dishes (250,000 cells/dish) in 9 ml of growth medium overnight. To analyze the effect of HKGS or a BRAF inhibitor on pERK, cells were starved for 2.5 hours in 5 mL of starvation medium without HKGS, and then individual plates were incubated for two hours with DMSO 0.1%, HKGS, vemurafenib 0.3 μM (0.146 μg/mL), or LUT014 0.3 μM (0.158 μg/mL). […] Cells were harvested with 1 ml cold PBS containing EDTA-free, phosphatase inhibitor cocktail (MilliporeSigma, Burlington, MA) using a cell scraper. […] The signals of phosphorylated ERK1/2 and total ERK2 were quantified using ImageJ software and the phosphorylated ERK1/2/total ERK2 ratio was calculated. For the quantification, equal sized rectangles were drawn around the bands of the phosphorylated ERK1/2 and the total ERK2 and the pixels in each rectangle were measured.

Consider `C#Cc1cccc(Nc2ncnc3cc(OCCOC)c(OCCOC)cc23)c1` [erlotinib, reference compound], for which the “HKGS stimulation of the MAPK pathway (pERK)” value is “partially inhibited”.

The values are drawn from patent US20230321106A1, “USE OF TOPICAL BRAF INHIBITOR COMPOSITIONS FOR TREATMENT OF EPIDERMAL GROWTH FACTOR RECEPTOR DOWNSTREAM EFFECTORS - INDUCED CUTANEOUS REACTIONS” (Lutris Pharma Ltd., priority 2020, published 2023).
